From ChEMBL document CHEMBL5465560, “Selectivity Literature for EUbOPEN Chemogenomic Library” (2024)

Columns and labels:
[1] = molecular target: T1, Phosphatidylinositol 5-phosphate 4-kinase type-2 alpha (Homo sapiens) (UniProt P48426); experiment: Selectivity interaction (Kinase panel (literature)) EUB0001199aCl PIP4K2A; conditions: at 1 µM
T1 sequence (whole entry): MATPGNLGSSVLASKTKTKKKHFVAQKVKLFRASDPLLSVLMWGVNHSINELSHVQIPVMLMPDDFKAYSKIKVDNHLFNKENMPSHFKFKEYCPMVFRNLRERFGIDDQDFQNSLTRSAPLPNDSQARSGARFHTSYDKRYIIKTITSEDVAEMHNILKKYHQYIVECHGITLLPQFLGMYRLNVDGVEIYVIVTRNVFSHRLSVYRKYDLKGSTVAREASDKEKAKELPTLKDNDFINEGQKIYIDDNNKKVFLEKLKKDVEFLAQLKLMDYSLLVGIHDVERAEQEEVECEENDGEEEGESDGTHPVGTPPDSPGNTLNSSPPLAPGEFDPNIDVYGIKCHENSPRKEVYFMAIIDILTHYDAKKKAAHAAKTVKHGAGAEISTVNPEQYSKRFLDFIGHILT

[2] = molecular target: Tyrosine-protein kinase Fer (Homo sapiens) (UniProt P16591); experiment: Selectivity interaction (KinomeScan (DiscoverX)) EUB0000229b FER; conditions: at 10 µM
[3] = molecular target: T2, Protein kinase C iota type (Homo sapiens) (UniProt P41743); experiment: Selectivity interaction (KinomeScan (DiscoverX)) EUB0000229b PRKCI; conditions: at 10 µM
T2 sequence (whole entry): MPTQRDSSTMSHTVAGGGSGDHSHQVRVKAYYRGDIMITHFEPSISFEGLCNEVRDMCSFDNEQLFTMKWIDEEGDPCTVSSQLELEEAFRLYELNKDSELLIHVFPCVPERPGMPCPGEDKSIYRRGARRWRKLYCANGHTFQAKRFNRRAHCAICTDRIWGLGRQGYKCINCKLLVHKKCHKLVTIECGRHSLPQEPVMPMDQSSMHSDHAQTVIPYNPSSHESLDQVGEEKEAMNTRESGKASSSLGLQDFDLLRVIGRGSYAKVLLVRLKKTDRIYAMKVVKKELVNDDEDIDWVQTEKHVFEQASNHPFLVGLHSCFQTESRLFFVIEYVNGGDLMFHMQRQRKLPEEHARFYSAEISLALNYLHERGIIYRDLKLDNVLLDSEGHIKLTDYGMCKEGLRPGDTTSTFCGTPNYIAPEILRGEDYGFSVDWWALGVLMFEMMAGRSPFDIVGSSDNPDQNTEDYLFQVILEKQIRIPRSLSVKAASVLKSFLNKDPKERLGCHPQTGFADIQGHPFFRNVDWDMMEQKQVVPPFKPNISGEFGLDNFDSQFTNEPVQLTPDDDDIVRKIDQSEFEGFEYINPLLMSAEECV

[4] = molecular target: T3, Rhodopsin kinase GRK1 (Homo sapiens) (UniProt Q15835); experiment: Selectivity interaction (KinomeScan (DiscoverX)) EUB0001079a GRK1; conditions: at 1 µM
T3 sequence (whole entry): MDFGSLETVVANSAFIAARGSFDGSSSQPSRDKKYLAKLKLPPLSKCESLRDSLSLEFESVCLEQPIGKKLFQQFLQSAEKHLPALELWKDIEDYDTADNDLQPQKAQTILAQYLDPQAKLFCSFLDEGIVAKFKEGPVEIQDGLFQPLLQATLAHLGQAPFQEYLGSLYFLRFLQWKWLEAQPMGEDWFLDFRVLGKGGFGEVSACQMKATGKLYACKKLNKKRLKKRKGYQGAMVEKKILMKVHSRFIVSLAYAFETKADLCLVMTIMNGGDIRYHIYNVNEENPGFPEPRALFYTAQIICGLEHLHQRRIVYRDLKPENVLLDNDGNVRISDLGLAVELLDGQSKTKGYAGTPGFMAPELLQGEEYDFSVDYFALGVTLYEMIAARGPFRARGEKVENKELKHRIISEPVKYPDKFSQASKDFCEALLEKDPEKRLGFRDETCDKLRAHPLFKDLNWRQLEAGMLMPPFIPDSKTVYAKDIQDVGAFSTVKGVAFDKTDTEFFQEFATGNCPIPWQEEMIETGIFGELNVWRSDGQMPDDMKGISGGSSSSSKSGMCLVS

[5] = molecular target: T4, Phosphatidylinositol 4,5-bisphosphate 3-kinase catalytic subunit delta isoform (Homo sapiens) (UniProt O00329); experiment: Selectivity interaction (KinomeScan (DiscoverX)) EUB0000618a PIK3CD; conditions: at 10 µM
T4 sequence (whole entry): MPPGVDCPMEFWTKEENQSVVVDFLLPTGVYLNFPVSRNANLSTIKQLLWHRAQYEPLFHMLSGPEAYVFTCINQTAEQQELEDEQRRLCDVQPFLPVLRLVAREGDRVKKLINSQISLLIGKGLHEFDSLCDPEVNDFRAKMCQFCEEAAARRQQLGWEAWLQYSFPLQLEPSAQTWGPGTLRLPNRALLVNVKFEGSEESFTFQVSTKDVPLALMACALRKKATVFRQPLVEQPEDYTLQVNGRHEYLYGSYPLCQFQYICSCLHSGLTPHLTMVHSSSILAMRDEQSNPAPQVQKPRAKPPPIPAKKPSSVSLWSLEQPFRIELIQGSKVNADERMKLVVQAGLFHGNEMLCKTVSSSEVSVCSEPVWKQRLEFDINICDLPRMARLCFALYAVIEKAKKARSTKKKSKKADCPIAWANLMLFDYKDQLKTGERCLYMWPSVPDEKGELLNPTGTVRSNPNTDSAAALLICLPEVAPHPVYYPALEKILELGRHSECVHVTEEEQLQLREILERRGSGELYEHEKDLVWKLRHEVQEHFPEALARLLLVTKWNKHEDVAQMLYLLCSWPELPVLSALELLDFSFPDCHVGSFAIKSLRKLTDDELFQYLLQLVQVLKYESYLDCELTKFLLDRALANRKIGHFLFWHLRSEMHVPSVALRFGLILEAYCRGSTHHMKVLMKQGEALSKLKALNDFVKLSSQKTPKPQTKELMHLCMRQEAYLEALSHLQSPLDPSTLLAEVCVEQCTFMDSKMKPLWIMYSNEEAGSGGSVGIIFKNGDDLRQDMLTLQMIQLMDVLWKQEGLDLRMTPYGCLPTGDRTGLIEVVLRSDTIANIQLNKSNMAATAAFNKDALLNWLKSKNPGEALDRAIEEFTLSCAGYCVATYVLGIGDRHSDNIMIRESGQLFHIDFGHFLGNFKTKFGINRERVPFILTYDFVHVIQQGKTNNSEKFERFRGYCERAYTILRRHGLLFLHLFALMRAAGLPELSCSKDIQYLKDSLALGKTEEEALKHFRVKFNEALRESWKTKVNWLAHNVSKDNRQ

[6] = molecular target: Dual specificity mitogen-activated protein kinase kinase 1 (Homo sapiens, UniProt Q02750); experiment: Selectivity interaction (KinomeScan (DiscoverX)) EUB0001619a MAP2K1; conditions: at 1 µM
[7] = molecular target: Serine/threonine-protein kinase B-raf (Homo sapiens) (UniProt P15056); experiment: (§1) Selectivity interaction (LanthaScreen Eu Kinase Binding Assay) EUB0001632a BRAF; conditions: at 10 µM
[8] = test system: Serine/threonine-protein kinase B-raf (Homo sapiens), P15056 [V600E]; experiment: as §1; conditions: at 10 µM
Serine/threonine-protein kinase B-raf (Homo sapiens), P15056 [V600E], sequence (P15056 whole entry V600E): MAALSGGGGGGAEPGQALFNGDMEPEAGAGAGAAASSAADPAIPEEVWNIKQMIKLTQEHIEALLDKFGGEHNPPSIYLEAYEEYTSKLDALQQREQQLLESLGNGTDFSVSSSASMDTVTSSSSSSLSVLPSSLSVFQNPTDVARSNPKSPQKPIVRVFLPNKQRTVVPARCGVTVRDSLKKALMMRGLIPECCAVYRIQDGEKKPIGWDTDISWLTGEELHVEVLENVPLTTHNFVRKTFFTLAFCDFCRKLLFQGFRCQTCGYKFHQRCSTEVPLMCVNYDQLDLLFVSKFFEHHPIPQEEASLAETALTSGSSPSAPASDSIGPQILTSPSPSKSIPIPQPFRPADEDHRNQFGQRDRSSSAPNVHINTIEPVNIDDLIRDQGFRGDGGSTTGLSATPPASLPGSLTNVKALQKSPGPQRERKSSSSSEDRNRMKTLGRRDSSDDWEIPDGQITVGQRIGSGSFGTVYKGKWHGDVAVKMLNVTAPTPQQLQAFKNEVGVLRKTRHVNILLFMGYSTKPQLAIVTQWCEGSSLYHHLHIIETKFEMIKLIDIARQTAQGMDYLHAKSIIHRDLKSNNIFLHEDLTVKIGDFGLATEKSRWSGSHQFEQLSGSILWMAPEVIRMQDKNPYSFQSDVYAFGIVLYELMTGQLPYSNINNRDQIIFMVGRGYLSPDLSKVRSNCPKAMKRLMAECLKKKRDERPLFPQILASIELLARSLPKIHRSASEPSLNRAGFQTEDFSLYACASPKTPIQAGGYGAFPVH

Dual specificity mitogen-activated protein kinase kinase 1, sequence (Q02750 whole entry): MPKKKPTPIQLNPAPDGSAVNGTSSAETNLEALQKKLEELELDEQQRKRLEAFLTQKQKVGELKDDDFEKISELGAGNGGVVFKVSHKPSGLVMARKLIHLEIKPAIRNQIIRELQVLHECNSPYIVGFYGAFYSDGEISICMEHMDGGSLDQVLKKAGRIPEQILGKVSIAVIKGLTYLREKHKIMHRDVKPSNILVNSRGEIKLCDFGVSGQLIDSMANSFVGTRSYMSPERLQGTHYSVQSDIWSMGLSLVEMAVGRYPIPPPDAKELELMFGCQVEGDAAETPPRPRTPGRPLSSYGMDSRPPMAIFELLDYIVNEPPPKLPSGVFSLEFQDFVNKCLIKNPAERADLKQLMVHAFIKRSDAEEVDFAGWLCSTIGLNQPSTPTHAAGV
Tyrosine-protein kinase Fer (Homo sapiens), sequence (P16591 whole entry, looked up): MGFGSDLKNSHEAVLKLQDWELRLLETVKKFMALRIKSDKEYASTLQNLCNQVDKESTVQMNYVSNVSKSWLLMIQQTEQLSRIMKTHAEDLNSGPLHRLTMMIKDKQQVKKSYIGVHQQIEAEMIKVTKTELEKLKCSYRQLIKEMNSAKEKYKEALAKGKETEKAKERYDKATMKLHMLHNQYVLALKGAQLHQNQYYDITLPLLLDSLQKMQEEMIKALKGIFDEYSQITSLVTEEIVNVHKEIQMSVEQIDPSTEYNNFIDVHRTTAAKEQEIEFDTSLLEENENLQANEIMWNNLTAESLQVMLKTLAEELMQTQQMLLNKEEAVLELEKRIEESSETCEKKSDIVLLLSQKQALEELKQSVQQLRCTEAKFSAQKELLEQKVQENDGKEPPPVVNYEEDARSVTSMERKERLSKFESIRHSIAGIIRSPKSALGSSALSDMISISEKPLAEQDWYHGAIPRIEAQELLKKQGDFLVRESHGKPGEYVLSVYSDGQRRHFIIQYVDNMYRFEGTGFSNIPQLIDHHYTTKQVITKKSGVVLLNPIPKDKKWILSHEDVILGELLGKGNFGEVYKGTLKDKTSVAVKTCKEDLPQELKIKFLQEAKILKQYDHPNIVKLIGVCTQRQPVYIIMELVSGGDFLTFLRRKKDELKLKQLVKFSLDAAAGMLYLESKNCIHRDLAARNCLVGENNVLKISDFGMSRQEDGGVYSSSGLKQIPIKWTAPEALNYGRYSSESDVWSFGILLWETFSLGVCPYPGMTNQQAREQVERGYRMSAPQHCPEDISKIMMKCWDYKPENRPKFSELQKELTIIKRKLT
Serine/threonine-protein kinase B-raf (Homo sapiens), sequence (P15056 whole entry): as the sequence (P15056 whole entry V600E) above, with E600V counted along it

Structure (SMILES): CN1Cc2nccc(-c3cn(C)nc3-c3ccc(F)cc3)c2C1=O
- % of inhibition [1]: -6%

Structure (SMILES): COc1cc(N(C)c2ccnc3ccc(C(F)(F)F)cc23)cc(OC)c1OC
- % binding [2]: 95%
- % binding [3]: 82%

Structure (SMILES): Nc1cnc(N2CCc3cc(S(=O)(=O)Nc4c(F)cc(Cl)cc4F)cc(N4CCCC4=O)c32)nc1 [TP-020n]
- % of control [4]: 100%

Structure (SMILES): O[C@H]1CC[C@H](Nc2ncc3nc(Nc4c(F)cc(F)cc4F)n([C@H]4CCOC4)c3n2)CC1
- % of control [5]: 96%

Structure (SMILES): N#Cc1cccc(-c2c[nH]c3ncnc(N4CCOCC4)c23)c1
- % of control [6]: 13%

Structure (SMILES): Cn1cc(-n2cnc3c(NCc4nc5cc(Cl)c(Cl)cc5[nH]4)nc(N4CCOCC4)nc32)cn1
- % of inhibition [7]: 5.68%
- % of inhibition [8]: 9.14%
